Measurements from patent US20230348401A1, “Inhibitors of Glucose-6-phosphate Dehydrogenase and Uses Thereof” (The Trustees of Princeton University, priority 2020, published 2023).

Tests used:
G6PD [1] = biological target: T1, G6PD (Homo sapiens, UniProt P11413); test: Cellular thermal shift assay (CETSA) in HepG2 lysates; type: binding; parameters: endogenous in cells; settings: up to 56° C.
Procedure: Lysates from HepG2 cells at 75% confluence were isolated with 0.5% Triton in TBS (20 mM, Tris pH 7.4, 150 mM NaCl) for 30 min on ice, pre-cleared by centrifugation and used for thermal shift assay as described 49. Briefly, inhibitor or DMSO control was added to lysates at indicated concentration and incubated for 30 min on ice followed by 3 min heating at 47° C., 50° C., 53° C., and 56° C. in a thermal cycler. After heating, tubes were cooled at room temperature for 3 min and insoluble fraction removed by centrifugation at 17,000 g for 20 min. The soluble fraction was separated by SDS-PAGE, transferred to PVDF membrane, and immunoblotted using indicated antibodies at a dilution of 1:2000. Blots were developed by chemiluminescence and imaged using LI-COR C-DiGit Western Blot Scanner. Two independent experiments were performed. Signal intensity of proteins from immunoblots was quantified using Image Studio version 5.2 for C-DiGit Scanner, and bands were normalized to signal intensity of the 47° C. treated samples. Relative signal intensities were plotted as bar graph relative to the DMSO treated control.
Target sequence in this assay (P11413 whole entry): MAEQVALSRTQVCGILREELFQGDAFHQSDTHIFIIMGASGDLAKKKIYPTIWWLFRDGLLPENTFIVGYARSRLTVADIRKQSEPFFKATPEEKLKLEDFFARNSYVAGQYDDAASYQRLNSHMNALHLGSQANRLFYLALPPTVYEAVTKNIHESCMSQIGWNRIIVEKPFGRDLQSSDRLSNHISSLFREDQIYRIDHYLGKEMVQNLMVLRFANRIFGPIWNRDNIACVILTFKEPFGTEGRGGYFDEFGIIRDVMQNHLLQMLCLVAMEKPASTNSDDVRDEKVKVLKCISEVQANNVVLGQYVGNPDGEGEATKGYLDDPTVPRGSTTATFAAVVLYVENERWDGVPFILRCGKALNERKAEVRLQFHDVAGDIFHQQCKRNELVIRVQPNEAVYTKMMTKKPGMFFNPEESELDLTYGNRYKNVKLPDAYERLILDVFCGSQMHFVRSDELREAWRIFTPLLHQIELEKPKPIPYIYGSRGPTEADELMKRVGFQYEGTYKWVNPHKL

G6PD [2] = biological target: T1, G6PD; test: 6-pg levels in HepG2 cells (cellular target engagement); type: cell-based; parameters: endogenous in cells; settings: for dose-dependent decrease in 6-pg levels: dose-response
From the text: Direct Monitoring of 6-pg in cells. The metabolite 6-phosphogluconate (6-pg) is a downstream product of the G6PD reaction, and is believed to be made predominantly by the oxidative pentose phosphate pathway in mammalian cells. Though the direct product of G6PD is the lactone form of 6-pg (6-phosphogluconolactone), this product is believed to readily hydrolyze to 6-pg under cellular conditions, and is therefore difficult to detect. Thus, to directly monitor the G6PD reaction, methods for measuring 6-pg levels in intact cells were developed.
To explore this possibility further, more specific assays for evaluating G6PD cellular target engagement were developed. […] These included the hepatocellular carcinoma line, HepG2, which was selected as the primary cell for direct 6-pg monitoring. Consistent with the oxPPP being the primary source of 6-pg in these cells, G6PD knockout led to nearly complete 6-pg loss (FIGS. 1B and 1C).
(§1) For analysis of intracellular metabolites by LC-MS, adherent cell lines were plated and grown to 80% confluency in 6-well plates. At the start of an experiment, the appropriate media was added to cells, which included isotope tracers and/or chemical inhibitors as described. Cells were incubated at 37° C. at 5% CO2 for 2 hours (unless otherwise noted). For all experiments involving small molecule agents, DMSO concentrations were <0.2%. After 2 hours, media was removed by aspiration and metabolome extraction was performed (without any wash steps) by the addition of 800 µL of ice cold solvent (40:40:20 acetonitrile:methanol:water + 0.5% formic acid). After a 1-minute incubation on ice, the extract was neutralized by the addition of NH4HCO3 (15% w/v). The samples were incubated at -20° C. for approximately 30 minutes, at which point the wells were scraped and the extract transferred to Eppendorf tubes and centrifuged (15 minutes, 16000 rpm, 4° C.). The resulting supernatant was frozen on dry ice and kept at -80° C. until LC-MS analysis.
Metabolites were analyzed using a quadrupole-orbitrap mass spectrometer (Q Exactive Plus, Thermo Fisher Scientific, Waltham, MA), coupled to hydrophilic interaction chromatography (HILIC) with LC separation on a XBridge BEH Amide column (Waters), or a stand-alone orbitrap (Thermo-Fisher Exactive) coupled to reversed-phase ion-pairing chromatography with LC separation on a HSS-T3 column (Waters). Both mass spectrometers were operating in negative ion mode and were coupled to their respective liquid chromatography methods via electrospray-ionization. Detailed analytical conditions have been previously described.
Target sequence in this assay (P11413 whole entry): as above

G6PD [3] = biological target: T1, G6PD; test: G6PD enzymatic activity by diaphorase-coupled assay
Target sequence in this assay (P11413 28-515): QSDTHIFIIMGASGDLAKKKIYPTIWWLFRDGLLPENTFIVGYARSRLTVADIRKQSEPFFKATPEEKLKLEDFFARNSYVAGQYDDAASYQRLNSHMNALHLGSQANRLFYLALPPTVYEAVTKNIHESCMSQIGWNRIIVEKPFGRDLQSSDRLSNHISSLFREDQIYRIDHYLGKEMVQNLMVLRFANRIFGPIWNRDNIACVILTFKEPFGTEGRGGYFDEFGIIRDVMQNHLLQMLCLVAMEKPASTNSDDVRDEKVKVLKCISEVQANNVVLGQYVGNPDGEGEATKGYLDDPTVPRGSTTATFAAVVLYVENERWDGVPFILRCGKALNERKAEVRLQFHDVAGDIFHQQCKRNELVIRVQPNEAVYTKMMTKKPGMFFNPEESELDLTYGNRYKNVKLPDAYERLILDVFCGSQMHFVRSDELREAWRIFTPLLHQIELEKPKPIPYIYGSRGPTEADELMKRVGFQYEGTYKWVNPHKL

G6PD [4] = biological target: T1, G6PD; test: 2H transfer from 1-2H-glucose to NADPH active hydride and C16:0 in HCT116 cells; type: cell-based; parameters: endogenous in cells; host or cells: HCT116; settings: for dose-dependent decrease in 2H transfer from 1-2H-glucose to NADPH's active hydride: HCT116 cells, dose-response
From the text: Direct Monitoring of NADPH Produced by the G6PD Reaction. […] NADPH production is compartmentalized, and occurs through reduction of its redox partner NADP^+. G6PD is one of the main enzymes that generates NADPH, and catalyzes the transfer of electrons (in the form of hydride) from glucose-6-phosphate to NADP^+. By installing a deuterium at the “one” position of glucose (1-^2H-glucose), the transfer of that deuterium to the active hydride of NADPH via glucose-6-phosphate can be specifically monitored. Also, a major use of cytosolic NADPH is fat synthesis. Transfer of ^2H from glucose via NADPH into free palmitate (C16:0) requires two NADPH per two-carbon unit addition during its synthesis.
Next, G6PD mediated hydride transfer to NADPH was directly monitored. Specifically, transfer of deuterium from 1-^2H-glucose, via glucose-6-phosphate, to the NADPH’s active hydride was monitored (FIG. 1B). […] The impacted step was G6PD, as no change in substrate (G6P) labeling was observed (FIG. 1E). A major use of cytosolic NADPH is fat synthesis. Transfer of ^2H from glucose via NADPH into palmitate (C16:0), which requires two NADPH per 2-carbon unit addition during its synthesis, was quantified (FIG. 1B).
For all experiments involving stable isotope tracers (e.g., 1-^2H-glucose), the isotope tracer nutrient was substituted for unlabeled nutrient at the same concentration normally found in the base media for a given cell type (e.g., DMEM for HCT116, RPMI for T cells, etc.). In addition, dialyzed FBS was used as a supplement in place of FBS.
Cytosolic NADPH sources were traced, and redox active hydride labeling was calculated, using a previously described strategy. 1-^2H-glucose (which directly traces G6PD) or 3-^2H-glucose (which directly traces PGD) were used for tracing oxPPP contribution to NADPH; 4-^2H-glucose for ME1; [2,3,3,4,4-^2H5]-glutamine, for both ME1 and IDH1; and D2O, to account for solvent exchange.
as §1
Target sequence in this assay (P11413 whole entry): as the sequence (P11413 whole entry) above

G6PD [5] = biological target: T1, G6PD; test: G6PD enzymatic activity by LC-MS (6-pg production); type: biochemical; parameters: Partially truncated human G6PD (residues 28-515, Uniprot ID P11413); His6 with thrombin cleavage site (N, cleaved yes); made in house; host or cells: Escherichia coli BL21(DE3)pLysS; settings: orthogonal LC-MS assay
Procedure: Aliquots of reaction mixture were collected at indicated time points and rapidly quenched by diluting (1:5) into methanol precooled on dry ice. The mixtures were centrifuged at 13,000 rcf for 20 minutes at 4° C., and the resulting supernatants were diluted (1:20) into 40:40:20 methanol/ acetonitrile/ water and analyzed by LC-MS.
Target sequence in this assay (P11413 28-515): as the sequence (P11413 28-515) above

Structure (SMILES) | thermal stabilization of G6PD (G6PD [1]) | 6-pg level (G6PD [2]; HepG2 cells, 100 µM, 2 hours) | dose-dependent decrease in 6-pg levels (G6PD [2]; HepG2 cells) | IC50 (G6PD [3]; IC50 (half-maximal inhibitory constant) against human G6PD, coupled enzymatic assay, recombinant human enzyme) | C16:0 labeling (G6PD [4]; 100 µM, 2 hours) | NADPH active hydride labeling (G6PD [4]; 100 µM, 2 hours) | dose-dependent decrease in 2H transfer from 1-2H-glucose to NADPH's active hydride (G6PD [4]) | 6-pg production by recombinant human G6PD (G6PD [5]) | activity against G6PD (G6PD [3]; in vitro) | 6-pg levels (G6PD [2]; 50 µM, 2 hours) | NADPH active hydride labeling (G6PD [4]; 50 µM, 2 hours)
C[C@]12CC[C@H](O)CC1=CC[C@@H]1[C@@H]2CC[C@]2(C)C(=O)CC[C@@H]12 [DHEA, dehydroepiandrosterone] | not | did not impact the 6-pg level | not | ~9.5 µM | did not decrease | did not decrease | not |  |  |  | 
CN(c1cccc(C#N)c1)c1ncc2c(n1)CCCC2=O [neg-ctrl, 3-[methyl(5-oxo-5,6,7,8-tetrahydroquinazolin-2-yl)amino]benzonitrile] |  |  | not |  |  |  | not | did not | lacked any activity against G6PD |  | 
OC[C@H]1O[C@@H](Oc2cc(O)cc(/C=C/c3ccc(O)cc3)c2)[C@H](O)[C@@H](O)[C@@H]1O [polydatin] |  |  |  |  |  |  |  |  |  | failed to decrease | failed to decrease
